Common to all, as to assay type: cell-based
One assay deals with U937 leukemia cell line. Nature of the assay: MTS assay (CellTiter96 Aqueous One solution proliferation assay), U937. The protocol:
(§1) Compounds CPF203, CPF204, CPF194, CPF210, CPF211, CPF212, CPF218 and CPT2001 were each tested in leukaemic cell lines to assess their anti-cancer efficacy. The compounds were tested using the MTS assay reagents from Promega (CellTiter96 Aqueous One solution proliferation assay). The compounds were tested between 10 μM and 0.002 μM in four fold dilutions.
(§2) The cell lines employed are set out in Tables IA and IB below and are NB4, HL60, NB4R2, K562, KG1, and U937 leukemia cell lines.
(§3) Table IA gives the IC50±standard deviation value for each cell line and compound tested and for all the cell lines together, in μM. Included in Table IA below, as a comparative example, is corresponding cell line data for cladribine. Table IB gives the IC50 value for each cell line and compound tested. Included in Table IB below, as a comparative example, is corresponding cell line data for clofarabine.

In another assay the test system is HL60 leukemia cell line. Briefly: MTS assay (CellTiter96 Aqueous One solution proliferation assay), HL60. The conditions noted are these: Table IA, read-out: IC50 ± standard deviation. On the procedure:
as §1, §2, §3

The next assay has as its system NB4 leukemia cell line. Briefly: MTS assay (CellTiter96 Aqueous One solution proliferation assay), NB4. The protocol:
as §1, §2, §3

The next assay concerns NB4R2 leukemia cell line. Nature of the assay: MTS assay (CellTiter96 Aqueous One solution proliferation assay), NB4R2. The note with it: Table IA, read-out: IC50 ± standard deviation. On the procedure: as §1, §2, §3
The next assay concerns KG1 leukemia cell line. Briefly: MTS assay (CellTiter96 Aqueous One solution proliferation assay), KG1. The conditions noted are these: Table IA, read-out: IC50 ± standard deviation. The protocol: as §1, §2, §3
The next assay has as its system leukaemic cell lines. Nature of the assay: MTS assay, all the cell lines together. The conditions noted are these: for IC50: All lines, Table IA, read-out: IC50 ± standard deviation, all the cell lines together; for anti-leukaemic potency/activity (in words): data of Table IA. The protocol:
as §1, §2, §3

A further assay relates to K562 leukemia cell line. Briefly: MTS assay (CellTiter96 Aqueous One solution proliferation assay), K562. The conditions noted are these: Table IA, read-out: IC50 ± standard deviation. The protocol: as §1, §2, §3
Setting [1] is: U937, Table IA, read-out: IC50 ± standard deviation.
The mark [2] stands for this setting: NB4, Table IA, read-out: IC50 ± standard deviation.

Read-outs that look alike come from different tables or passages of the source.

Consider “2-chloro-2′-deoxyadenosine-5′-[phenyl-(methoxy-L-alaninyl)]-phosphate [CPF203]”, for which the IC50 came to 1290 ± 910 nM with U937 leukemia cell line (setting [1]); 6230 ± 1750 nM with HL60 leukemia cell line; 1160 ± 40 nM in the assay with NB4 leukemia cell line (setting [2]); 2280 ± 590 nM in the assay with NB4R2 leukemia cell line; 2230 ± 690 nM in the assay with KG1 leukemia cell line; 2640 ± 2090 nM in the assay with leukaemic cell lines.
On to `C[C@H](NP(=O)(OC[C@H]1O[C@@H](n2cnc3c(Cl)nc(N)nc32)C[C@@H]1O)Oc1ccccc1)C(=O)OCc1ccccc1` (stereo partly drawn) [CPF194, 2-amino-6-chloropurine-2′-deoxyriboside-5′-[phenyl-(benzoxy-L-alaninyl)]-phosphate], for which the IC50 in the assay with KG1 leukemia cell line amounted to 2640 ± 180 nM. Also, in the assay on leukaemic cell lines, the IC50 was found to be 2640 ± 180 nM and the “anti-leukaemic potency/activity (in words)” value was “anti-leukaemic activity demonstrated”.
For `C[C@H](NP(=O)(OC[C@H]1O[C@@H](n2cnc3c(N)nc(Cl)nc32)C[C@@H]1O)Oc1ccccc1)C(=O)OCc1ccccc1` (stereo partly drawn) [CPF204, 2-chloro-2′-deoxyadenosine-5′-[phenyl-(benzoxy-L-alaninyl)]-phosphate], the half-maximal inhibitory concentration (IC50) in the assay on U937 leukemia cell line (setting [1]) amounted to 80 ± 10 nM; in the assay with HL60 leukemia cell line, 1750 ± 890 nM; with NB4 leukemia cell line (setting [2]), 230 ± 100 nM; in the assay with NB4R2 leukemia cell line it was 630 ± 40 nM; with KG1 leukemia cell line, 670 ± 200 nM; in the assay on leukaemic cell lines, 670 ± 700 nM.
`C[C@H](NP(=O)(OC[C@H]1O[C@@H](n2cnc3c(N)nc(Cl)nc32)C[C@@H]1O)Oc1cccc2ccccc12)C(=O)OCc1ccccc1` (stereo partly drawn) [CPF210, 2-chloro-2′-deoxyadenosine-5′-[1-naphthyl-(benzoxy-L-alaninyl)]-phosphate]: the IC50 was found to be 190 ± 90 nM with U937 leukemia cell line (setting [1]); 650 ± 190 nM with HL60 leukemia cell line; 240 ± 110 nM in the assay with NB4 leukemia cell line (setting [2]); 1030 ± 150 nM in the assay with NB4R2 leukemia cell line; 1800 ± 720 nM in the assay with KG1 leukemia cell line; 2360 ± 1570 nM with K562 leukemia cell line. For the same molecule, the half-inhibitory concentration (IC50) with leukaemic cell lines was 1040 ± 1020 nM. The “anti-leukaemic potency/activity (in words)” value with leukaemic cell lines is reported as “greater anti-leukaemic potency than the corresponding compound CPF203”.
As for `C[C@H](NP(=O)(OC[C@H]1O[C@@H](n2cnc3c(N)nc(Cl)nc32)C[C@@H]1O)Oc1cccc2ccccc12)C(=O)OCc1ccccc1` (stereo partly drawn) [CPF211, 2-chloro-2′-deoxyadenosine-5′-[1-naphthyl-(benzoxy-L-alaninyl)]-phosphate], the IC50 with U937 leukemia cell line (setting [1]) amounted to 280 ± 30 nM; in the assay on HL60 leukemia cell line, 1660 ± 240 nM; with NB4 leukemia cell line (setting [2]), 430 ± 40 nM; in the assay with NB4R2 leukemia cell line, 1180 ± 210 nM; with KG1 leukemia cell line, 2630 ± 1190 nM; in the assay on K562 leukemia cell line, 2280 ± 1320 nM. The IC50 with leukaemic cell lines was determined as 1410 ± 1090 nM.
For `C[C@H](NP(=O)(OC[C@H]1O[C@@H](n2cnc3c(N)nc(Cl)nc32)C[C@@H]1O)Oc1cccc2ccccc12)C(=O)OCc1ccccc1` (stereo partly drawn) [CPF212, 2-chloro-2′-deoxyadenosine-5′-[1-naphthyl-(benzoxy-L-alaninyl)]-phosphate], the IC50 with U937 leukemia cell line (setting [1]) was found to be 140 ± 150 nM; in the assay with HL60 leukemia cell line, 1780 ± 500 nM; in the assay with NB4 leukemia cell line (setting [2]) it was 230 ± 40 nM; with NB4R2 leukemia cell line, 1010 ± 390 nM; in the assay with KG1 leukemia cell line it was 1540 ± 440 nM; with K562 leukemia cell line it was 5800 ± 3600 nM. In the assay on leukaemic cell lines, the IC50 was found to be 1750 ± 2340 nM.
In the case of `C[C@H](NP(=O)(OC[C@H]1O[C@@H](n2cnc3c(N)nc(Cl)nc32)C[C@@H]1O)Oc1ccc(Cl)c2ccccc12)C(=O)OCc1ccccc1` (stereo partly drawn) [CPF218, 2-chloro-2′-deoxyadenosine-5′-[4-chloro-1-naphthyl-(benzoxy-L-alaninyl)]-phosphate], the IC50 with U937 leukemia cell line (setting [1]) amounted to 550 ± 440 nM; in the assay on HL60 leukemia cell line it was 1750 ± 760 nM; with NB4 leukemia cell line (setting [2]), 270 ± 30 nM; with NB4R2 leukemia cell line it was 1090 ± 40 nM; in the assay with KG1 leukemia cell line it was 1560 ± 250 nM; with K562 leukemia cell line, 4410 ± 950 nM. In addition, the IC50 in the assay on leukaemic cell lines came to 1600 ± 1470 nM.
As for `C[C@@H](NP(=O)(OCC1OC(n2cnc3c(N)nc(Cl)nc32)C(F)C1O)Oc1ccccc1)C(=O)OCc1ccccc1` (stereo partly shown) [CPT2001], the IC50 with U937 leukemia cell line (Homo sapiens, U-937) was 80 nM; in the assay with NB4 leukemia cell line, 120 nM. Besides, in the assay with leukaemic cell lines (data of Table IB (NB4, U937)), the “anti-cancer activity compared to clofarabine” value is on record as “enhanced anti-cancer activity compared to clofarabine”.
For `Nc1nc(Cl)nc2c1ncn2[C@H]1C[C@H](O)[C@@H](CO)O1` [Cladribine, reference compound], the concentration for half-maximal inhibition (IC50) with U937 leukemia cell line (setting [1]) amounted to 2080 ± 2750 nM; with HL60 leukemia cell line it was 10300 ± 3460 nM; in the assay with NB4 leukemia cell line (setting [2]), 9390 ± 4250 nM; in the assay with NB4R2 leukemia cell line it was 7810 ± 1640 nM; in the assay with KG1 leukemia cell line, 5480 ± 1860 nM; in the assay with leukaemic cell lines it was 7210 ± 3690 nM.
As to `Nc1nc(Cl)nc2c1ncn2[C@@H]1O[C@H](CO)[C@@H](O)[C@@H]1F` [Clofarabine, reference compound], the IC50 in the assay with U937 leukemia cell line (U937, Table IB, read-out: IC50) was 260 nM; in the assay with NB4 leukemia cell line (NB4, Table IB, read-out: IC50), 200 nM.

Values taken from patent US8263575B2, “Phosphoramidate derivatives of nucleoside compounds for use in the treatment of cancer” (Nucana Biomed Limited, priority 2005, dated 2012).
